The text below walks through data of patent US20200032213A1, “CONDITIONALLY IMMORTALIZED CELLS AND METHODS FOR THEIR PREPARATION” (Academisch Ziekenhuis Leiden h.o.d.n. LUMC, priority 2017, published 2020).

The test system of assay [1] is adipogenically differentiated murine clone 6 and 7 tBPAs. Put plainly: Adrenergic stimulation of adipogenically differentiated tBPAs (glycerol production, Ucp1 transcripts). The format is cell-based.
The subject of a further assay is iaCMCs. Put plainly: Dox-dependent proliferation of iaCMCs (Ki-67 immunostaining, cell counting). Format: cell-based, rat. Conditions: in the presence of Dox (100 ng/ml). As to the method:
Immunostaining of cultured cells was performed as previously described (Yu et al., 2016) using the following primary antibodies at a dilution of 1:200 in PBS containing 0.1% normal donkey serum (NDS; Sigma-Aldrich): mouse anti-LT (Santa Cruz Biotechnology, catalogue number: sc-147), rabbit anti-Ki-67 (Abcam, catalogue number: ab15580), mouse anti-α-actinin (Sigma-Aldrich, catalogue number: A7811), rabbit anti-MLC2a (Kubalak et al., 1994), rabbit anti-Cx43 (Sigma-Aldrich, catalogue number: C6219) and rabbit anti-ERG1/Kv11.1 (Millipore, catalogue number: AB5930). Bound antigens were detected using Alexa 488-conjugated donkey anti-rabbit IgG (H+L) (Thermo Fisher Scientific, catalogue number: A21206) and Alexa 568-coupled donkey anti-mouse IgG (H+L) (Thermo Fisher Scientific, catalogue number: A10037). These secondary antibodies were diluted 1:400 in PBS. Hoechst 33342 ([…]; Thermo Fisher Scientific) was used to counterstain nuclei. Stained cells were visualized using a digital color camera-equipped fluorescence microscope (Nikon Eclipse 80i; Nikon Instruments Europe, Amstelveen, The Netherlands). To assess their proliferation rate, […] were cultured at low density in medium with or without 100 ng/ml Dox. […]

Assay [2] concerns iaCMCs at day 6 of differentiation. Put plainly: Optical voltage mapping of iaCMC-d6 cultures exposed to astemizole, 1-Hz pacing. Format: cell-based, rat. Here is the method:
For studying AP propagation in confluent monolayer cultures, cells were seeded at a density of 8×10^5 cells/well in 24-well cell culture plates onto bovine fibronectin-coated round glass coverslips (15 mm diameter) and subjected to optical voltage mapping using di-4-ANEPPS (Thermo Fisher Scientific) as fluorescent voltage indicator as described previously (Bingen et al., 2014). The measurements were carried out at 37° C. on 9-day-old naCMC and nvCMC cultures and on iaCMCs that had been maintained for 0, 3, 6, 9 and 12 days in Dox-free medium. Optical signals were captured using a MiCAM ULTIMA-L imaging system (SciMedia, Costa Mesa, Calif.). Optical traces were analyzed using Brain Vision Analyzer 1208 software (Brainvision, Tokyo, Japan). To minimize noise artifacts, calculations were based on the average of the signals at a selected pixel and its eight nearest neighbors. CV and APD at different percentages of repolarization were determined using cardiomyocyte cultures showing uniform AP propagation and 1:1 capture after 1-Hz local electrical stimulation with an epoxy-coated bipolar platinum electrode delivering square 10-ms, 8-V suprathreshold electrical impulses via a STG 2004 stimulus generator and MC Stimulus II software (both from Multi Channel Systems). Burst pacing with a cycle length of 20 to 100 ms was used to induce reentry. […] To facilitate comparison of the APD, the amplitude of the optical signal traces was normalized for all samples within a given experiment.

The test system of assay [3] is iaCMCs at day 9 of differentiation. Put plainly: Optical voltage mapping of tertiapin-treated iaCMC-d9 monolayers, 1-Hz pacing. The format is cell-based, rat. Conditions: tertiapin (100 nM), iaCMCs cultured 9 days without Dox. As to the method:
(§1) For studying AP propagation in confluent monolayer cultures, cells were seeded at a density of 8×10^5 cells/well in 24-well cell culture plates onto bovine fibronectin-coated round glass coverslips (15 mm diameter) and subjected to optical voltage mapping using di-4-ANEPPS (Thermo Fisher Scientific) as fluorescent voltage indicator as described previously (Bingen et al., 2014). The measurements were carried out at 37° C. on 9-day-old naCMC and nvCMC cultures and on iaCMCs that had been maintained for 0, 3, 6, 9 and 12 days in Dox-free medium. Optical signals were captured using a MiCAM ULTIMA-L imaging system (SciMedia, Costa Mesa, Calif.). Optical traces were analyzed using Brain Vision Analyzer 1208 software (Brainvision, Tokyo, Japan). To minimize noise artifacts, calculations were based on the average of the signals at a selected pixel and its eight nearest neighbors. CV and APD at different percentages of repolarization were determined using cardiomyocyte cultures showing uniform AP propagation and 1:1 capture after 1-Hz local electrical stimulation with an epoxy-coated bipolar platinum electrode delivering square 10-ms, 8-V suprathreshold electrical impulses via a STG 2004 stimulus generator and MC Stimulus II software (both from Multi Channel Systems). Burst pacing with a cycle length of 20 to 100 ms was used to induce reentry. […]

In assay [4] the test system is confluent monolayers of iaCMCs. Put plainly: In vitro AF model: induction of reentry by burst pacing in confluent iaCMC monolayers. Format: cell-based, rat. Conditions: 100 nM tertiapin, iaCMCs at day 6, 9 or 12 of differentiation. As to the method: as §1
The test system of another assay is confluent naCMC cultures. Conditions: naCMCs; Bingen et al., 2013; cited from earlier work.

`C[C@H](Cc1ccc2c(c1)OC(C(=O)[O-])(C(=O)[O-])O2)NC[C@H](O)c1cccc(Cl)c1.[Na+].[Na+]` [CL316243]: in assay [1], the Ucp1 transcript levels result was “increased” and the glycerol production entry is reported as “increased”.
As for `C[C@H]1c2cccc(O)c2C(=O)C2=C(O)[C@]3(O)C(=O)C(C(N)=O)=C(O)[C@@H](N(C)C)[C@@H]3[C@@H](O)[C@@H]21` [Dox, doxycycline], in the assay on iaCMCs, the average doubling time was 38 h and the “iaCMCs positive for the proliferation marker Ki-67” value is 72.2±8.1%.
Regarding `COc1ccc(CCN2CCC(Nc3nc4ccccc4n3Cc3ccc(F)cc3)CC2)cc1` [astemizole], the “conduction velocity (CV)” value in assay [2] (0.1 µM) turned out to be 14.8 ± 2.8 cm/s. For the same molecule, the “APD at 40% repolarization (APD40)” value in assay [2] (100 nM astemizole, 30 minutes, iaCMC-d6, 1-Hz pacing, N=6, vehicle 21.5±1.0) was 30.2 ± 2.1 ms. The “APD at 90% repolarization (APD90)” value in assay [2] (100 nM astemizole, 30 minutes, iaCMC-d6, 1-Hz pacing, N=6, vehicle 88.7±5.4) is 110.9 ± 4.2 ms.
In the case of `NC[C@H](O)c1ccc(O)c(O)c1` [noradrenaline], in assay [1], the Ucp1 transcript levels entry was “increased” and the glycerol production result was “increased”.
tertiapin (ALCNCNRIIIPHMCWKKCGKK): the “effect on APD” value in assay [3] is given as “strong increase”. Moreover, in assay [4], the “inducibility of reentry by burst pacing” value is “no longer possible to induce reentry”. In the assay on confluent naCMC cultures, the “termination of reentrant circuits (rotors) by prolonging APD” value is recorded as “could be terminated”.
